Laboratory results: BindingDB's records for patent US11053253 (Achillion Pharmaceuticals, 2021)

target: Complement factor D (Homo sapiens, UniProt P00746); assay: Human Factor D Assay
Procedure: Human Factor D (purified from human serum, Complement Technology, Inc.) at 80 nM final concentration is incubated with test compound at various concentrations for 5 min at room temperature in 50 mM Tris, 1M NaCl, pH 7.5. A synthetic substrate Z-L-Lys-SBzl and DTNB (Ellman's reagent) are added to final concentrations of 100 µM each. Absorbance at 405 nm (A405) is recorded at 30 second intervals for 30 minutes using a microplate spectrophotometer. IC50 values are calculated by nonlinear regression of Complement Factor D reaction rates as a function of test compound concentration.

Sequence of Complement factor D (P00746 whole entry): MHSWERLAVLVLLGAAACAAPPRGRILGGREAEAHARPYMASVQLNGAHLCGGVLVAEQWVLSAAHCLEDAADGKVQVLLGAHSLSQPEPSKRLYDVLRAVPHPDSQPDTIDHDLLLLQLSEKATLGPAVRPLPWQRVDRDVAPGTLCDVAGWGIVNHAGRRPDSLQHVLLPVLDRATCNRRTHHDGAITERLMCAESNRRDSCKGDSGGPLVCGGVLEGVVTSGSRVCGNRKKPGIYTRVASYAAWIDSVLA

SMILES | IC50
CC(=O)c1nn(CC(=O)N2[C@H]3C[C@]4(C[C@@H]24)Cn2ccc(n2)/C=C/COCc2ccc(Br)nc2NC3=O)c2ccc(-c3cnc(C)nc3)cc12 [US11053253, Cmp No. T-67] | < 1 µM
CC(=O)c1nn(CC(=O)N2[C@H]3C[C@]4(C[C@@H]24)Cn2ccc(n2)/C=C/COCc2ccc(Br)nc2NC3=O)c2cnc(-c3cnc(C)nc3)cc12 [US11053253, Cmp No. T-68] | < 1 µM
CC(=O)c1nn(CC(=O)N2[C@H]3C[C@@]4(COCC=CCOCc5cc(Br)nc(c5)NC3=O)C[C@@H]24)c2cnc(-c3cnc(C)nc3)cc12 [US11053253, Cmp No. T-83] | < 1 µM
CC(=O)c1nn(CC(=O)N2[C@H]3C[C@@]4(C=CCCCN(C)S(=O)(=O)Cc5ccc(Br)nc5NC3=O)C[C@@H]24)c2ccc(-c3cnc(C)nc3)cc12 [US11053253, Cmp No. T-215] | < 1 µM
CC(=O)c1nn(CC(=O)N2[C@H]3C[C@@]4(C=CCCCN(C)S(=O)(=O)Cc5ccc(Br)nc5NC3=O)C[C@@H]24)c2c(C)cc(-c3cnc(C)nc3)cc12 [US11053253, Cmp No. T-216] | < 1 µM
